From US20100215588A1, “THERAPEUTIC DELIVERY OF INHIBITORY NUCLEIC ACID MOLECULES TO THE RESPIRATORY SYSTEM” (priority 2007, published 2010)

Experiments:
A549 lung tumors = test: A549 lung tumor growth after inhaled Nrf2 siRNA alone or with carboplatin; type: in vivo, SCID-Beige mice; settings: lung tumor weights; siRNA 100 μg/dose by nebulizer three times a week for 4 weeks; carboplatin 30 mg/kg i.p. twice/week
Procedure: (§1) Tumor Xenografts: A549 cells (5×10^6) were injected into the hind leg of male athymic nude mice and the tumor was measured weekly. The tumor volumes were measured using the following formula: [length (mm)×width (mm)×width (mm)×0.52]. In the lung metastasis experiments, 2×10^6 A549-C8-luc cells were injected into SCID-Beige mice (Charles River, Mass.) intravenously.
(§2) For in vivo experiments, all siRNA compounds were chemically synthesized being stabilized by alternating 2-O′-Me modifications on both strands. The sequence of siRNA targeting human Nrf2 used for in vivo experiments is 5′-UCCCGUUUGUAGAUGACAA-3′ (sense) and 5′-UUGUCAUCUACAAACGGGA-3′ (antisense). The sequence of control siRNA targeting GFP is 5′-[…]-3′ (sense) and 5′-[…]-3′ (antisense).
For aerosol delivery of Nrf2 or GFP siRNA into lung tumors, 100 μg of siRNA duplex diluted in PBS was aerosolized using a nebulizer. Mice were given three dose of siRNA (100 μg/dose) every week, for 4 weeks, using a nebulizer. Intraperitoneal injections of carboplatin were given at a dose of 30 mg/kg body weight twice/week.
(§3) In Vivo Imaging: Animals inoculated with A549-C8-luc cells, which express a luciferase reporter gene, were anesthetized and injected intraperitoneally with 250 ul of luminescent substrate (15 mg/ml stock) D-Luciferin Firefly (Xenogen Cat# XR-1001). The animals were then imaged and analyzed by using the Xenogen IVIS Optical Imaging Device in the Johns Hopkins Oncology Center.
Statistical Analysis-Statistical comparisons were performed by Student's t-tests. A value of p<0.05 was considered statistically significant. Tumor weights and changes in tumor volume were summarized using descriptive statistics. Differences in tumor measures between treatment groups were examined using linear regression models with generalized estimating equations (GEE). The distributions of both tumor measurements were skewed, so log transformations were used.

Nrf2 = test: ARE-Luc Nrf2-dependent reporter activity in orthotopic lung tumors, in vivo imaging; set-up: species or system SCID-Beige mice; settings: siRNA by nebulizer; mice with A549-C8-luc lung tumors; FIG. 5
Procedure: as §1, §2
For aerosol delivery of Nrf2 or GFP siRNA into lung tumors, 100 μg of siRNA duplex diluted in PBS was aerosolized using a nebulizer. Mice were given three dose of siRNA (100 μg/dose) every week, for 4 weeks, using a nebulizer. […]
as §3

RTP801 = test: Short-term (7 day) cigarette smoking model, intralung delivery of RTP801 siRNA; type: in vivo, mouse (C57BL6)
Procedure: CS-induced inflammation was induced by 7 day smoking in 2 groups of C57BL6 mice, 10 mice per group. Group 1: CS+delivery of control siRNA (REDD8) siRNA; Group 2: CS+RTP801 siRNA (REDD14). Control groups of mice were instilled with either type of siRNA but kept in room air conditions. The animals were evaluated as in the above experiment with the Knock-Out mice.
Exposure was carried out (7 h/day, 7 days/week) by burning 2R4F reference cigarettes (2.45 mg nicotine per cigarette; purchased from the Tobacco Research Institute, University of Kentucky, Lexington, Ky., USA) using a smoking machine (Model TE-10, Teague Enterprises, Davis, Calif., USA). Each smoldering cigarette was puffed for 2 s, once every minute for a total of eight puffs, at a flow rate of 1.05 L/min, to provide a standard puff of 35 cm^3. The smoke machine was adjusted to produce a mixture of sidestream smoke (89%) and mainstream smoke (11%) by burning five cigarettes at one time. Chamber atmosphere was monitored for total suspended particulates and carbon monoxide, with concentrations of 90 mg/m3 and 350 ppm, respectively.
Following exposure to CS or instillation of RTP801 expressing plasmid, the mice were anesthetized with sodium pentobarbital. […] The total number of cells in the lavage fluid was determined, and 2×10^4 cells were cytocentrifuged (Shandon Southern Products, Pittsburgh, Pa., USA) onto glass slides and stained with Wright-Giemsa stain. […]
Immunohistochemical staining of active caspase-3 assay was performed using anti-active caspase-3 antibody and the active caspase-3-positive cells were counted with a macro, using Image Pro Plus program. […]
The activity of caspase-3 activity was measured in lung tissue extracts using a fluorometric assay according to the manufacturer's instructions. […] After removal of nuclei and cellular debris, the supernatant (300 μg protein) was then incubated with the pro-fluorescent substrate at room temperature for 1 h and the fluorescence intensity was measured utilizing a Typhoon phosphoimager (Amersham Biosciences, Inc., Piscataway, N.J., USA). […]

[1] = Qualitative distribution of REDD14Cy3.5 siRNA in lung and kidney (fluorescence analysis); type: in vivo, cynomolgus monkeys
Procedure: On Day 15 of the study, two of the available animals (101 and 102) were administered a target dose of 35 mg/kg of a mixture of I5NP and REDD14Cy3.5 (fluorescence-labelled) siRNA via an oronasal mask as a nebulized aerosol generated by the Aeroneb device. A 2.0 L/min dilution airflow was used. The total dose of siRNA administered was calculated, based on the bodyweights and measured respiratory minute volumes of the animals, and on the achieved output of the Aeroneb device using the formulation concentration of 40 mg/mL of siRNA. The administered dose was adjusted by changing the exposure times for the animals
At the time of necropsy following Treatment 2, the lungs, bronchi and trachea of animal 102 were removed from the animal. The lungs were perfused with 4% paraformaldehyde, introduced using a syringe, via the trachea and/or bronchus and stored in this fixative at ambient temperature for a period of approximately 21 hours. Following this, as much as possible of the original fixative fluid was withdrawn by syringe via the trachea/bronchus and replaced with 0.2% paraformaldehyde. The fixed lungs were analyzed for fluorescence distribution.
At the time of necropsy following Treatment 2, the right kidney of animal 102 was removed from the animal. The kidney was dissected into quarters by making one longitudinal and one transverse cut, each to pass through the hilus, and then immersed in 4% paraformaldehyde and refrigerated for approximately 21 hours. Following this, the fixing solution was changed to 0.2% paraformaldehyde and the kidney was analyzed for fluorescence distribution.
Following Treatment 2, lung and kidney samples from animal 102 were analyzed for distribution of fluorescence (from REDD14Cy3.5 siRNA). The results were considered to be qualitative.

[2] = Treatment 2, animal 102, approximately 30 minutes post-end of dosing, qualitative

N.N.O=C([O-])C1(C(=O)[O-])CCC1.[Pt+2] [Vehicle siRNA + carboplatin, carboplatin]
Mean (SD) tumor weight (A549 lung tumors): 495 (49.5) mg

GFP siRNA: control siRNA targeting GFP; sense 5′-GGCUACGUCCAGGAGCGCACC-3′, antisense 5′-GGUGCGCUCCUGGACGUAGCC-3′ (alternating 2'-O-methyl on both strands, starting position not given here)
Mean (SD) tumor weight (A549 lung tumors): 710 (167.93) mg

Nrf2 siRNA: siRNA targeting human Nrf2, alternating 2-O′-Me; sense 5′-UCCCGUUUGUAGAUGACAA-3′, antisense 5′-UUGUCAUCUACAAACGGGA-3′ (alternating 2'-O-methyl on both strands, starting position not given here)
Nrf2 reporter activity in vivo (Nrf2): inhibited Nrf2 reporter activity in vivo
Mean (SD) tumor weight (A549 lung tumors): 802 (172.25) mg

REDD14: exemplary siRNA in aqueous solution directed against gene RTP801; sense GUGCCAACCUGAUGCAGCU, antisense AGCUGCAUCAGGUUGGCAC (chemistry not fully specified)
RTP801 expression in the lungs (RTP801; 50 μg siRNA instilled intranasally, FIG. 3b): reduction of RTP801 expression in the lungs
cigarette smoking induced apoptosis of lung septal cells (activated caspase staining, caspase 3 immunoblot) (RTP801; 1 week of cigarette smoking, FIG. 3c): partially protected from cigarette smoking induced apoptosis of lung septal cells
cigarette smoking induced inflammation (number of inflammatory bronchoalveolar lavage cells) (RTP801; 1 week of cigarette smoking, versus control siRNA REDD8, FIG. 3a): partially protected from cigarette smoking induced inflammation

REDD14Cy3.5: fluorescent-labelled (Cy3.5) REDD14, RTP801 inhibiting siRNA; sense GUGCCAACCUGAUGCAGCU, antisense AGCUGCAUCAGGUUGGCAC (Cy3.5 fluorescent label, position and strand not given here)
fluorescent label in lungs [1, 2]: detected in all sections taken from all lobes of the lungs
fluorescent label in right kidney [1, 2]: little label detected in the right kidney
distribution in lung, I5NP (hybridization) and REDD14Cy3.5 (fluorescence) compared ([1]; after oronasal inhalation): little difference in the distribution of the two test articles in lung
